Numbered stars: 1 amine (or outer) side, 2 acyl side, 3 side chain; on linkers, the order of the positions; unused ones are H or OH. Square brackets hold non-standard residues; d marks the D form. Peptide text beside a SMILES is read from it. * marks the point of attachment. DOTA = O=C(O)CN1CCN(CC(=O)O)CCN(CC(=O)*)CCN(CC(=O)O)CC1; Leuψ(CH2N)ThzNH2 = CC(C)C[C@@H](CN1CSC[C@H]1C(N)=O)N*; NMeH = CN[C@@H](Cc1c[nH]cn1)C(=O)O; X1 = O=C(CN1CCC(N[*:1])CC1)[*:2]; Tle = CC(C)(C)[C@H](N)C(=O)O; Thz = O=C(O)[C@@H]1CSCN1
Columns and labels:
[1] = target: T1, GRPR (Homo sapiens, UniProt P30550); test: In vitro competition binding assay, displacement of [^125I-Tyr^4]bombesin on GRPR-expressing PC-3 cells; conditions: n = 2-3, read-out: Binding affinities Ki Mean
T1 construct: endogenous in cells; host or cells: PC-3 prostate cancer cells
T1 sequence (P30550 whole entry): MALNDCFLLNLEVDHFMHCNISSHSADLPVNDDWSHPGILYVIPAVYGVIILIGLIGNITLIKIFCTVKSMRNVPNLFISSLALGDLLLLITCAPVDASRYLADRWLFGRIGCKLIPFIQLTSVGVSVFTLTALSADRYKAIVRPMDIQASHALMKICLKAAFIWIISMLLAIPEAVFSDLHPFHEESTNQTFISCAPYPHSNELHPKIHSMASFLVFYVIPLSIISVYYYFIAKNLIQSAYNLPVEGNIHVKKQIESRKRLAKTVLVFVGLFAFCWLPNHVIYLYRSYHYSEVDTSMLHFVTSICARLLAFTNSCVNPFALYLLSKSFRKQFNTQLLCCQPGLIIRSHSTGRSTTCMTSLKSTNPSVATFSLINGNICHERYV
Method: PC-3 cells were seeded at 2×10^5 cells/well in 24-well poly-D-lysine plates 24-48 hours prior to the experiment. The growth medium was replaced by 400 μL of reaction medium (RPMI 1640 containing 2 mg/mL BSA, 4.8 mg/mL HEPES, 1 U/mL penicillin G and 1 μg/mL streptomycin). Cells were incubated for 30-60 min at 37° C. […] The cells were incubated with moderate agitation for 1 h at 27° C., washed twice with ice-cold PBS, harvested by trypsinization, and measured for radioactivity on the gamma counter. Data were analyzed using nonlinear regression (one binding site model for competition assay) with GraphPad Prism 8.
In vitro competition binding assays were performed according to the procedure outlined in Example 1.

[2] = in vivo; conditions: male, NRG, mouse, iv, total radioactivity
Method: (§1) All imaging and biodistribution studies were performed using male NOD.Cg-Rag1^tm1MoM II2rg^tm1WI/SzJ (NRG) mice and conducted according to the guidelines established by the Canadian Council on Animal Care and approved by Animal Ethics Committee of the University of British Columbia. For tumor inoculations, mice were anesthetized by inhalation with 2% isoflurane in oxygen and implanted subcutaneously with 5×10^6 PC-3 cells below the left shoulder. Imaging and biodistribution studies were performed only after tumors grew to 5-8 mm in diameter.
(§2) For PET/CT imaging studies, ˜3-4 MBq of the ^68Ga-labeled tracer was injected through the tail vein. Mice were allowed to recover and roam freely in the cages after injecting the tracer. At 45 min post-injection (p.i.), mice were sedated again and positioned on the scanner. First, a 10 min CT scan was conducted for localization and attenuation correction for reconstruction of PET images, before a 10 min PET image was acquired. Heating pads were used during the entire procedure to keep the mice warm. For ex vivo biodistribution studies, mice were injected with ˜1.5-3 MBq of the ^68Ga-labeled tracer. At 1 h p.i., mice were euthanized, blood was drawn from heart, and organs/tissues of interest were collected, rinsed with PBS, blotted dry, weighed, and counted using an automated gamma counter. The uptake in each organ/tissue was normalized to the injected dose and expressed as the percentage of the injected dose per gram of tissue (% ID/g).
(§3) All imaging and biodistribution studies were performed using male NOD.Cg-Rag1tm1Mom II2rgtm1WjI/SzJ (NRG) mice and conducted according to the guidelines established by the Canadian Council on Animal Care and approved by Animal Ethics Committee of the University of British Columbia. For tumor inoculations, mice were anesthetized by inhalation with 2% isoflurane in oxygen and implanted subcutaneously with 5×10^6 PC-3 cells below the left shoulder. Imaging and biodistribution studies were performed only after tumors grew to 5-8 mm in diameter.
(§4) For PET/CT imaging studies, ˜5 MBq of the ^68Ga-labeled tracer was injected through the tail vein. Mice were allowed to recover and roam freely in the cages after injecting the tracer. At 45 min post-injection (p.i.), mice were sedated again and positioned on the scanner. First, a 10 min CT scan was conducted for localization and attenuation correction for reconstruction of PET images, before a 10 min PET image was acquired. Heating pads were used during the entire procedure to keep the mice warm. For ex vivo biodistribution studies, mice were injected with ˜3 MBq of the 68Ga-labeled tracer. At 1 h p.i., mice were euthanized, blood was drawn from heart, and organs/tissues of interest were collected, rinsed with PBS, blotted dry, weighed, and counted using an automated gamma counter.

[3] = Ex vivo biodistribution in PC-3 tumor-bearing mice; conditions: male, NRG, mouse, iv, total radioactivity, 1 h post-injection, mice bearing PC-3 tumor xenografts, n = 4
Method: as §1, §2, §3, §4

[4] = Biodistribution Large Intestine Mean
[5] = Biodistribution Small Intestine Mean
[6] = PC-3 tumor, Biodistribution PC3 tumor Mean
[7] = seminal, Biodistribution Seminal Mean

CC(C)C[C@@H](CN1CSC[C@H]1C(N)=O)NC(=O)[C@H](Cc1c[nH]cn1)NC(=O)CNC(=O)[C@@H](NC(=O)[C@H](C)NC(=O)[C@H](Cc1c[nH]c2ccccc12)NC(=O)[C@H](CCC(N)=O)NC(=O)[C@H]1Cc2c([nH]c3ccccc23)CN1C(=O)CN1CCC(NC(=O)CN2CCN(CC(=O)O)CCN(CC(=O)O)CCN(CC(=O)O)CC2)CC1)C(C)C [LW01061, DOTA-Pip-D-Tpi-Gln-Trp-Ala-Val-Gly-His-Leu-ψ-Thz-NH2]
Ki [1]: > 400 nM

CC(C)C[C@H](NC(=O)[C@H](Cc1cnc[nH]1)NC(=O)CNC(=O)[C@@H](NC(=O)[C@H](C)NC(=O)[C@H](Cc1c[nH]c2ccccc12)NC(=O)[C@H](CCC(N)=O)NC(=O)[C@H](N)Cc1ccccc1)C(C)(C)C)C(=O)N1CSC[C@H]1C(N)=O [LW01080, D-Phe-Gln-Trp-Ala-Tle-Gly-His-Leu-Thz-NH2]
Ki [1]: 3.56 nM

CC(C)C[C@H](NC(=O)[C@H](Cc1cnc[nH]1)NC(=O)CNC(=O)[C@@H](NC(=O)[C@H](C)NC(=O)[C@H](Cc1c[nH]c2ccccc12)NC(=O)[C@H](CCC(N)=O)NC(=O)[C@H](N)Cc1ccccc1)C(C)C)C(=O)N1CSC[C@H]1C(N)=O [LW01085]
Ki [1]: 8.77 nM

CC(C)C[C@H](NC(=O)[C@H](Cc1cnc[nH]1)N(C)C(=O)CNC(=O)[C@@H](NC(=O)[C@H](C)NC(=O)[C@H](Cc1c[nH]c2ccccc12)NC(=O)[C@H](CCC(N)=O)NC(=O)[C@H](N)Cc1ccccc1)C(C)C)C(=O)N1CSC[C@H]1C(N)=O [LW01088, D-Phe-Gln-Trp-Ala-Val-Gly-NMe-His-Leu-Thz-NH2]
Ki [1]: 9 nM

CC(C)C[C@H](NC(=O)[C@H](Cc1cnc[nH]1)NC(=O)CNC(=O)[C@@H](NC(=O)[C@H](C)NC(=O)[C@H](Cc1cn(C)c2ccccc12)NC(=O)[C@H](CCC(N)=O)NC(=O)[C@H](N)Cc1ccccc1)C(C)C)C(=O)N1CSC[C@H]1C(N)=O [LW01136]
Ki [1]: 35.7 nM

CC(C)C[C@H](NC(=O)[C@H](Cc1c[nH]cn1)NC(=O)CNC(=O)[C@@H](NC(=O)[C@H](C)NC(=O)[C@H](Cc1c[nH]c2ccc(F)cc12)NC(=O)[C@H](CCC(N)=O)NC(=O)[C@H](N)Cc1ccccc1)C(C)C)C(=O)N1CSC[C@H]1C(N)=O [LW01166]
Ki [1]: 17.9 nM

CC(C)C[C@H](NC(=O)[C@H](Cc1c[nH]cn1)NC(=O)CNC(=O)[C@@H](NC(=O)[C@H](C)NC(=O)[C@H](Cc1c[nH]c2cc(F)ccc12)NC(=O)[C@H](CCC(N)=O)NC(=O)[C@H](N)Cc1ccccc1)C(C)C)C(=O)N1CSC[C@H]1C(N)=O [LW01175]
Ki [1]: 46.9 nM

CC(C)C[C@H](NC(=O)[C@H](Cc1c[nH]cn1)NC(=O)CNC(=O)[C@@H](NC(=O)[C@H](C)NC(=O)[C@H](Cc1c[nH]c2c(F)cccc12)NC(=O)[C@H](CCC(N)=O)NC(=O)[C@H](N)Cc1ccccc1)C(C)C)C(=O)N1CSC[C@H]1C(N)=O [LW01177, D-Phe-Gln-7-F-Trp-Ala-Val-Gly-His-Leu-Thz-NH2]
Ki [1]: 9.38 nM

CC(C)C[C@H](NC(=O)[C@H](Cc1c[nH]cn1)NC(=O)CNC(=O)[C@@H](NC(=O)[C@H](C)NC(=O)[C@H](Cc1c[nH]c2cccc(F)c12)NC(=O)[C@H](CCC(N)=O)NC(=O)[C@H](N)Cc1ccccc1)C(C)C)C(=O)N1CSC[C@H]1C(N)=O [LW01180]
Ki [1]: 43.4 nM

Cc1cccc2[nH]cc(C[C@H](NC(=O)[C@H](CCC(N)=O)NC(=O)[C@H](N)Cc3ccccc3)C(=O)N[C@@H](C)C(=O)N[C@H](C(=O)NCC(=O)N[C@@H](Cc3c[nH]cn3)C(=O)N[C@@H](CC(C)C)C(=O)N3CSC[C@H]3C(N)=O)C(C)C)c12 [LW01183]
Ki [1]: 25.9 nM

Cc1cccc2c(C[C@H](NC(=O)[C@H](CCC(N)=O)NC(=O)[C@H](N)Cc3ccccc3)C(=O)N[C@@H](C)C(=O)N[C@H](C(=O)NCC(=O)N[C@@H](Cc3c[nH]cn3)C(=O)N[C@@H](CC(C)C)C(=O)N3CSC[C@H]3C(N)=O)C(C)C)c[nH]c12 [LW02007]
Ki [1]: 13.5 nM

Cc1[nH]c2ccccc2c1C[C@H](NC(=O)[C@H](CCC(N)=O)NC(=O)[C@H](N)Cc1ccccc1)C(=O)N[C@@H](C)C(=O)N[C@H](C(=O)NCC(=O)N[C@@H](Cc1c[nH]cn1)C(=O)N[C@@H](CC(C)C)C(=O)N1CSC[C@H]1C(N)=O)C(C)C [LW02009, D-Phe-Gln-2-Me-Trp-Ala-Val-Gly-His-Leu-Thz-NH2]
Ki [1]: 11.5 nM

CC(C)C[C@H](NC(=O)[C@H](Cc1c[nH]cn1)NC(=O)CNC(=O)[C@@H](NC(=O)[C@H](C)NC(=O)[C@H](Cc1c[nH]c2ncccc12)NC(=O)[C@H](CCC(N)=O)NC(=O)[C@H](N)Cc1ccccc1)C(C)C)C(=O)N1CSC[C@H]1C(N)=O [LW02013]
Ki [1]: 166 nM

CC(C)C[C@H](NC(=O)[C@H](Cc1c[nH]cn1)NC(=O)CNC(=O)[C@@H](NC(=O)[C@H](C)NC(=O)[C@H](Cc1csc2ccccc12)NC(=O)[C@H](CCC(N)=O)NC(=O)[C@H](N)Cc1ccccc1)C(C)C)C(=O)N1CSC[C@H]1C(N)=O [LW02015] (HELM PEPTIDE1{[dF].Q.[O=C([C@H](Cc1csc2ccccc12)N[*:1])[*:2]].A.V.G.H.L.[O=C([C@@H]1CSCN1[*:1])[*:2]].[am]}$$$$V2.0)
Ki [1]: 53.1 nM

CC(C)C[C@H](NC(=O)[C@H](Cc1c[nH]cn1)NC(=O)CNC(=O)[C@@H](NC(=O)[C@H](C)NC(=O)[C@H](Cc1c[nH]c2ccccc12)NC(=O)[C@H](CCC(N)=O)NC(=O)[C@H](N)Cc1ccccc1)C1CC1)C(=O)N1CSC[C@H]1C(N)=O [LW02016]
Ki [1]: 202 nM

CC(C)C[C@H](NC(=O)[C@H](Cc1cnc[nH]1)N(C)C(=O)CNC(=O)[C@@H](NC(=O)[C@H](C)NC(=O)[C@H](Cc1c[nH]c2ccccc12)NC(=O)[C@H](CCC(N)=O)NC(=O)[C@@H](Cc1ccccc1)NC(=O)CN1CCC(NC(=O)CN2CCN(CC(=O)O)CCN(CC(=O)O)CCN(CC(=O)O)CC2)CC1)C(C)(C)C)C(=O)N1CSC[C@H]1C(N)=O [^68Ga-LW01110, metal not drawn]
tissue uptake at 1 h ([2]; Biodistribution Adrenal Mean): 1.64 %ID/g | tissue uptake at 1 h ([2]; Biodistribution Blood Mean): 0.69 %ID/g | tissue uptake at 1 h ([2]; Biodistribution Bone Mean): 0.12 %ID/g | tissue uptake at 1 h ([2]; Biodistribution Brain Mean): 0.03 %ID/g | tissue uptake at 1 h ([2]; Biodistribution Fat Mean): 0.09 %ID/g | tissue uptake at 1 h ([2]; Biodistribution Heart Mean): 0.23 %ID/g | tissue uptake at 1 h ([2]; Biodistribution Kidneys Mean): 3.26 %ID/g | tissue uptake at 1 h [2, 4]: 1.27 %ID/g | tissue uptake at 1 h ([2]; Biodistribution Liver Mean): 0.41 %ID/g | tissue uptake at 1 h ([2]; Biodistribution Lungs Mean): 0.59 %ID/g | tissue uptake at 1 h ([2]; Biodistribution Muscle Mean): 0.14 %ID/g | tissue uptake at 1 h ([2]; Biodistribution Pancreas Mean): 8.99 %ID/g | tissue uptake at 1 h [2, 5]: 2.11 %ID/g | tissue uptake at 1 h ([2]; Biodistribution Spleen Mean): 0.29 %ID/g | tissue uptake at 1 h ([2]; Biodistribution Stomach Mean): 0.94 %ID/g | tissue uptake at 1 h ([2]; Biodistribution Testes Mean): 0.16 %ID/g | tissue uptake at 1 h [3, 6]: 16.6 %ID/g | tissue uptake at 1 h [3, 7]: 0.1 %ID/g

CC(C)C[C@H](NC(=O)[C@H](Cc1cnc[nH]1)N(C)C(=O)CNC(=O)[C@@H](NC(=O)[C@H](C)NC(=O)[C@H](Cc1c[nH]c2ccccc12)NC(=O)[C@H](Cc1c[nH]cn1)NC(=O)[C@@H](Cc1ccccc1)NC(=O)CN1CCC(NC(=O)CN2CCN(CC(=O)O)CCN(CC(=O)O)CCN(CC(=O)O)CC2)CC1)C(C)(C)C)C(=O)N1CSC[C@H]1C(N)=O [^68Ga-LW01142, metal not drawn] ({DOTA}-[X1][dF]HWA[Tle]G[NMeH]L[Thz]-NH2)
tissue uptake at 1 h ([2]; Biodistribution Adrenal Mean): 2.07 %ID/g | tissue uptake at 1 h ([2]; Biodistribution Blood Mean): 6.88 %ID/g | tissue uptake at 1 h ([2]; Biodistribution Bone Mean): 0.47 %ID/g | tissue uptake at 1 h ([2]; Biodistribution Brain Mean): 0.15 %ID/g | tissue uptake at 1 h ([2]; Biodistribution Fat Mean): 0.32 %ID/g | tissue uptake at 1 h ([2]; Biodistribution Heart Mean): 1.62 %ID/g | tissue uptake at 1 h ([2]; Biodistribution Kidneys Mean): 6.36 %ID/g | tissue uptake at 1 h [2, 4]: 1.07 %ID/g | tissue uptake at 1 h ([2]; Biodistribution Liver Mean): 2.88 %ID/g | tissue uptake at 1 h ([2]; Biodistribution Lungs Mean): 4.59 %ID/g | tissue uptake at 1 h ([2]; Biodistribution Muscle Mean): 0.52 %ID/g | tissue uptake at 1 h ([2]; Biodistribution Pancreas Mean): 4.4 %ID/g | tissue uptake at 1 h [2, 5]: 1.7 %ID/g | tissue uptake at 1 h ([2]; Biodistribution Spleen Mean): 0.88 %ID/g | tissue uptake at 1 h ([2]; Biodistribution Stomach Mean): 0.98 %ID/g | tissue uptake at 1 h ([2]; Biodistribution Testes Mean): 1.28 %ID/g | tissue uptake at 1 h [3, 6]: 11.4 %ID/g | tissue uptake at 1 h [3, 7]: 0.33 %ID/g

CC(C)C[C@@H](CN1CSC[C@H]1C(N)=O)NC(=O)[C@H](Cc1c[nH]cn1)NC(=O)CNC(=O)[C@@H](NC(=O)[C@H](C)NC(=O)[C@H](Cc1c[nH]c2ccccc12)NC(=O)[C@H](CCC(N)=O)NC(=O)[C@@H](Cc1ccccc1)NC(=O)CN1CCC(NC(=O)CN2CCN(CC(=O)O)CCN(CC(=O)O)CCN(CC(=O)O)CC2)CC1)C(C)(C)C [^68Ga-LW01158, metal not drawn] ({DOTA}-[X1][dF]QWA[Tle]GH-{Leuψ(CH2N)ThzNH2})
tissue uptake at 1 h ([2]; Biodistribution Adrenal Mean): 1.37 %ID/g | tissue uptake at 1 h ([2]; Biodistribution Blood Mean): 1.14 %ID/g | tissue uptake at 1 h ([2]; Biodistribution Bone Mean): 0.13 %ID/g | tissue uptake at 1 h ([2]; Biodistribution Brain Mean): 0.03 %ID/g | tissue uptake at 1 h ([2]; Biodistribution Fat Mean): 0.07 %ID/g | tissue uptake at 1 h ([2]; Biodistribution Heart Mean): 0.34 %ID/g | tissue uptake at 1 h ([2]; Biodistribution Kidneys Mean): 2.98 %ID/g | tissue uptake at 1 h [2, 4]: 1.41 %ID/g | tissue uptake at 1 h ([2]; Biodistribution Liver Mean): 4.33 %ID/g | tissue uptake at 1 h ([2]; Biodistribution Lungs Mean): 1.19 %ID/g | tissue uptake at 1 h ([2]; Biodistribution Muscle Mean): 0.2 %ID/g | tissue uptake at 1 h [2, 5]: 2.46 %ID/g | tissue uptake at 1 h ([2]; Biodistribution Spleen Mean): 0.6 %ID/g | tissue uptake at 1 h ([2]; Biodistribution Stomach Mean): 1.3 %ID/g | tissue uptake at 1 h ([2]; Biodistribution Testes Mean): 0.24 %ID/g | tissue uptake at 1 h [3, 6]: 11.2 %ID/g | tissue uptake at 1 h ([3]; pancreas, Biodistribution Pancreas Mean): 12 %ID/g | tissue uptake at 1 h [3, 7]: 0.15 %ID/g

Reference: patent US12246076B2, “Radiolabeled compounds for in vivo imaging of gastrin-releasing peptide receptor (GRPR) and treatment of GRPR-related disorders” (PROVINCIAL HEALTH SERVICES AUTHORITY, priority 2022, dated 2025)
